Laboratory results as given in patent publication US9169267B2, “Quaternary ammonium salts, method for preparation and applications thereof” (Uniwersytet Medyczny IM. Karola Marcinkowskiego, priority 2012, dated 2015).

How the values were obtained:
Format in all cases: cell-based
[1] = tested on: Staphylocoocus aureus ATCC 6538; test: Antimicrobial activity MIC/MBC test, Staphylocoocus aureus ATCC 6538; conditions: read-out: MBC (minimum bactericidal concentration)
Protocol: (§1) The four reference strains were indications of the minimum inhibitory concentration (MIC) and minimum bactericidal concentration (MBC) tests conducted for two newly synthesized compounds of the new quaternary ammonium salts derivatives: 4-[2-(4-bromophenyl)-2-oxoethyl]tetrahydro[1,3]oxazolo[2,3-b][1,3]oxazol-4-ium bromide and 4-[2-(biphenyl-4-yl)-2-oxoethyl]tetrahydro[1,3]oxazolo[2,3-b][1,3]oxazol-4-ium bromide. The study was carried out on strains: Staphylocoocus aureus ATCC 6538, Escherichia coli ATCC 25922, Pseudomonas aeruginosa ATCC 6749, Candida albicans ATCC 10231,

[2] = tested on: Escherichia coli ATCC 25922; test: Antimicrobial activity MIC/MBC test, Escherichia coli ATCC 25922; conditions: ATCC25922, read-out: MBC (minimum bactericidal concentration)
Protocol: as §1

[3] = tested on: Pseudomonas aeruginosa ATCC 6749; test: Antimicrobial activity MIC/MBC test, Pseudomonas aeruginosa ATCC 6749; conditions: for MBC: ATCC6749, read-out: MBC (minimum bactericidal concentration); for MIC: ATCC6749, read-out: MIC (minimum inhibitory concentration)
Protocol: as §1

[4] = tested on: Candida albicans ATCC 10231; test: Antimicrobial activity MIC/MBC test, Candida albicans ATCC 10231; conditions: ATCC10231, read-out: MBC (minimum bactericidal concentration)
Protocol: as §1

Row | MIC [3] [mg/mL] | Compound | MBC [1] [µg/mL] | MBC [2] [µg/mL] | MBC [3] [mg/mL] | MBC [4] [mg/mL]
1 | 27.8 | O=C(C[N+]12CCOC1OCC2)c1ccc(Br)cc1.[Br-] (stereo not shown) [4-[2-(4-bromophenyl)-2-oxoethyl]tetrahydro[1,3]oxazolo[2,3-b][1,3]oxazol-4-ium bromide] | 1730 | 6940 | 27.8 | 27.8
2 | 13.9 | O=C(C[N+]12CCOC1OCC2)c1ccc(-c2ccccc2)cc1.[Br-] (stereo not shown) [4-[2-(biphenyl-4-yl)-2-oxoethyl]tetrahydro[1,3]oxazolo[2,3-b][1,3]oxazol-4-ium bromide] | 430 | 3470 | 55.5 | 6.94
